In one test the target is histamine receptor H1 (Homo sapiens, UniProt P35367). In words: Histamine H1 radioligand binding ([3H]Pyrilamine). The conditions noted are these: read-out: Histamine Binding (1 μM) H1, percent inhibition of specific binding, 1 μM. In outline:
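Values are percent inhibition of specific [3H]pyrilamine (1.2 nM) binding with compounds at ≤1 μM (1% DMSO vehicle); 180 min incubation at 25 °C, pH 7.4 Tris buffer, on CHO-expressed human H1 receptor; 1 μM pyrilamine defined nonspecific binding, bound ligand counted after filtration.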

Test [1] has as its target T1, human recombinant histamine H2 receptor (Homo sapiens, UniProt P25021).
T1 construct: expressed in transfected cells; host or cells: Chinese hamster ovary (CHO) K1 cells
In words: Histamine H2 radioligand binding ([125I]Aminopotentidine). As to conditions: read-out: Histamine Binding (1 μM) H2, percent inhibition of specific binding, 1 μM. How it is done: To evaluate in radioligand binding assays the activity of compounds of the invention, human recombinant histamine H2 receptor expressed in Chinese hamster ovary (CHO) K1 cells (Ruat, M., Proc. Natl. Acad. Sci. USA. 87(5):1658, 1990) in a 50 mM Phosphate buffer, pH 7.4 was used. Compounds of the invention were incubated with 0.1 nM [^125I]Aminopotentidine for 120 min. at 25° C. Non-specific binding was estimated in the presence of 3 μM Tiotidine. Receptor proteins were filtered and washed, the filters were then counted to determine [^125I]Aminopotentidine specifically bound.

The target in test [2] is human dopamine D2L receptor (Homo sapiens, UniProt P14416). Description: Dopamine D2L radioligand binding ([3H]Spiperone). The conditions noted are these: compound at 1 μM. From the text: Non-specific binding was estimated in the presence of […] Haloperidol. Receptor proteins were filtered and washed, the filters were then counted to determine [^3H]Spiperone specifically bound. […] Biochemical assay results are presented as the percent inhibition of specific binding in Table 9.

In test [3] the target is T2, human recombinant serotonin (5-Hydroxytryptamine) 5-HT2A receptor (Homo sapiens, UniProt P28223).
T2 construct: expressed in transfected cells; host or cells: Chinese hamster ovary (CHO-K1) cells
Description: Serotonin 5-HT2A radioligand binding ([3H]Ketanserin). As to conditions: read-out: Inhibition of ligand binding, Serotonin 5-HT2A (percent inhibition of specific binding), compound at 1 μM. How it is done:
Compounds of the invention were incubated with 0.5 nM [^3H]Ketanserin for 60 min. at 25° C. Non-specific binding was estimated in the presence of 1 μM Mianserin. Receptor proteins were filtered and washed, the filters were then counted to determine [^3H]Ketanserin specifically bound.

Test [4] deals with T3, human recombinant serotonin (5-Hydroxytryptamine) 5-HT2C receptor (Homo sapiens, UniProt P28335).
T3 construct: expressed in transfected cells; host or cells: Chinese hamster ovary (CHO-K1) cells
T3 sequence (P28335 33-458): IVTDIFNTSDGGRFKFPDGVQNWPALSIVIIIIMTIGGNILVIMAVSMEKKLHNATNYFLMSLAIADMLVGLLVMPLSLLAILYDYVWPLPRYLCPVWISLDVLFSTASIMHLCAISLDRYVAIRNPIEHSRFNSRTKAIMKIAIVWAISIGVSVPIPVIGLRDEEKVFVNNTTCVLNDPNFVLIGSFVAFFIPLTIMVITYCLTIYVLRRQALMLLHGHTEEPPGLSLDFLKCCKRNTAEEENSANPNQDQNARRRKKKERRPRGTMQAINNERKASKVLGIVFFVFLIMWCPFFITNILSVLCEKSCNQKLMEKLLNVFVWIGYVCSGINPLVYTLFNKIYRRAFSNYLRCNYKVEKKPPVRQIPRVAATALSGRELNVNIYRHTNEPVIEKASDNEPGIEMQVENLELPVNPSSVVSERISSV
Description: Serotonin 5-HT2C radioligand binding ([3H]Mesulergine). As to conditions: compound at 1 μM; read-out: Inhibition of ligand binding, Serotonin 5-HT2C (percent inhibition of specific binding). The method in brief:
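Compounds tested at 1 μM or lower (1% DMSO vehicle) for displacement of 1 nM [3H]Mesulergine over 60 min at 25° C. Specific binding determined by filtration counting, with 1 μM Mianserin defining non-specific binding; values are percent inhibition.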

Test [5] deals with T4, human recombinant serotonin (5-Hydroxytryptamine) 5-HT6 receptor (Homo sapiens, UniProt P50406).
T4 construct: expressed in transfected cells; host or cells: human HeLa cells
Description: Serotonin 5-HT6 radioligand binding ([3H]LSD). As to conditions: compound at 1 μM; read-out: Inhibition of ligand binding, Serotonin 5-HT6 (percent inhibition of specific binding). How it is done:
Compounds of the invention were incubated with 1.5 nM [3H]Lysergic acid diethylamide (LSD) for 120 min. at 37° C. […] Receptor proteins were filtered and washed, the filters were then counted to determine [3H]LSD specifically bound. Compounds were screened at 1 μM or lower, using 1% DMSO as vehicle. Biochemical assay results are presented as the percent inhibition of specific binding in Table 10.

In test [6] the target is human recombinant serotonin (5-Hydroxytryptamine) 5-HT7 receptor (Homo sapiens, UniProt P34969). In words: Serotonin 5-HT7 radioligand binding ([3H]LSD). As to conditions: compound at 1 μM; read-out: Inhibition of ligand binding, Serotonin 5-HT7 (percent inhibition of specific binding). From the text:
Receptor proteins were filtered and washed, the filters were then counted to determine [^3H]LSD specifically bound.

Where [7] appears, read: percent inhibition of specific binding, read-out: Inhibition of ligand binding, Dopamine D2L.

Where two headings read alike, the source gives them in different places.

T4 sequence (P50406 whole entry): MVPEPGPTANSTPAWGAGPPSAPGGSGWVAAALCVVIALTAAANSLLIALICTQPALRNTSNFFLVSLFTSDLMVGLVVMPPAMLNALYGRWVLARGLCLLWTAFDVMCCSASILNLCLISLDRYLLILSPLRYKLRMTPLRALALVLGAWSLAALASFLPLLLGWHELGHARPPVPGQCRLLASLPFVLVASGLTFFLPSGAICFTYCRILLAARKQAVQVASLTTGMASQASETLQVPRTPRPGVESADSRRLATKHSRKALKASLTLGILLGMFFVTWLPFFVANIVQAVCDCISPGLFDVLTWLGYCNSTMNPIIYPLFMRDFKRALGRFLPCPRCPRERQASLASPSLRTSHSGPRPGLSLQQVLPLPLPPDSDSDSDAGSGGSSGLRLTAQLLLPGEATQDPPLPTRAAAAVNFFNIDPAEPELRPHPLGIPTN
Sequence of human recombinant serotonin (5-Hydroxytryptamine) 5-HT7 receptor (P34969 whole entry): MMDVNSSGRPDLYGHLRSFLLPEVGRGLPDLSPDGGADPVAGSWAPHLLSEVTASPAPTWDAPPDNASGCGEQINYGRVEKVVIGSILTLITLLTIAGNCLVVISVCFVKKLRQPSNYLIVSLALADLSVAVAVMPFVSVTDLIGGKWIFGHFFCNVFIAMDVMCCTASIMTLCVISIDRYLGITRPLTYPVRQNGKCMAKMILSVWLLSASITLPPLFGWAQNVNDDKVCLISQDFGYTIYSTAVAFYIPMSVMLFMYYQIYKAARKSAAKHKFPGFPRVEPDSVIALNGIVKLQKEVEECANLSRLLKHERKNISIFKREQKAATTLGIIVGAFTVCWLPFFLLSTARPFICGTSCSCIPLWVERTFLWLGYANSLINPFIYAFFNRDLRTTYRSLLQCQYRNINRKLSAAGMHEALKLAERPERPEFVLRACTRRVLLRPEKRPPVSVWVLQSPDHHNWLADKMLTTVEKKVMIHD
Sequence of human dopamine D2L receptor (P14416 whole entry): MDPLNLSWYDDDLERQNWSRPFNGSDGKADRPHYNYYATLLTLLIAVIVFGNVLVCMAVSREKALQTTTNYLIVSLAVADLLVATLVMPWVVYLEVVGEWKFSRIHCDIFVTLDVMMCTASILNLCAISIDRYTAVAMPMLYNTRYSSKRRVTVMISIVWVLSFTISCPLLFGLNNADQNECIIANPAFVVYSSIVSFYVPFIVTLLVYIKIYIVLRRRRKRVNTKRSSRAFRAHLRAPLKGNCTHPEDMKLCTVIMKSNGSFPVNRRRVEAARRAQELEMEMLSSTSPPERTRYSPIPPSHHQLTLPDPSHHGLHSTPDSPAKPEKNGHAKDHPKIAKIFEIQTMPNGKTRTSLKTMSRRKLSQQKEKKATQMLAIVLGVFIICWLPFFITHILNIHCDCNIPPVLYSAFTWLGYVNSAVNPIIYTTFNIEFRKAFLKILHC
T2 sequence (P28223 whole entry): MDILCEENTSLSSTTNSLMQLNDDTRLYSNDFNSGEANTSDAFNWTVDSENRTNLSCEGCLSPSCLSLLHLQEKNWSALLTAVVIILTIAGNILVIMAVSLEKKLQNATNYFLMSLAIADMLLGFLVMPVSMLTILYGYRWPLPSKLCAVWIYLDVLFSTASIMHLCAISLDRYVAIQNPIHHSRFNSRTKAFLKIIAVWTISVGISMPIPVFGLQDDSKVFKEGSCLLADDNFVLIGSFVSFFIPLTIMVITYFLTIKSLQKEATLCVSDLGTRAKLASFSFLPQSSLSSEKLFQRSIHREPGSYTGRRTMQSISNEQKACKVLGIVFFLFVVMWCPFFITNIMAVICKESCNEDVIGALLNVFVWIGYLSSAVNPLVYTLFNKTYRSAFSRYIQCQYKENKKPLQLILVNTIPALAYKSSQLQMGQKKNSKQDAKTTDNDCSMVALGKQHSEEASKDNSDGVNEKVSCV
T1 sequence (P25021 whole entry): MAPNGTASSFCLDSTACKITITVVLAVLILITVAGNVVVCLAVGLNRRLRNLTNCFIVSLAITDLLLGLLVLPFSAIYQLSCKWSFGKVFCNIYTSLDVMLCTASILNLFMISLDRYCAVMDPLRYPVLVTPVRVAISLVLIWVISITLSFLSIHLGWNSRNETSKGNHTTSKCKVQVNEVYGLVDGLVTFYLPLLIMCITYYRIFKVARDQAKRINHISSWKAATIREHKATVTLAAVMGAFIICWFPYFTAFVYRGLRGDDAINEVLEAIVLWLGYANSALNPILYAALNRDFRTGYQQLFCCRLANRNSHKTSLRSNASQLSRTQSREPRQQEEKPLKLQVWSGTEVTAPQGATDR
Sequence of histamine receptor H1 (P35367 whole entry): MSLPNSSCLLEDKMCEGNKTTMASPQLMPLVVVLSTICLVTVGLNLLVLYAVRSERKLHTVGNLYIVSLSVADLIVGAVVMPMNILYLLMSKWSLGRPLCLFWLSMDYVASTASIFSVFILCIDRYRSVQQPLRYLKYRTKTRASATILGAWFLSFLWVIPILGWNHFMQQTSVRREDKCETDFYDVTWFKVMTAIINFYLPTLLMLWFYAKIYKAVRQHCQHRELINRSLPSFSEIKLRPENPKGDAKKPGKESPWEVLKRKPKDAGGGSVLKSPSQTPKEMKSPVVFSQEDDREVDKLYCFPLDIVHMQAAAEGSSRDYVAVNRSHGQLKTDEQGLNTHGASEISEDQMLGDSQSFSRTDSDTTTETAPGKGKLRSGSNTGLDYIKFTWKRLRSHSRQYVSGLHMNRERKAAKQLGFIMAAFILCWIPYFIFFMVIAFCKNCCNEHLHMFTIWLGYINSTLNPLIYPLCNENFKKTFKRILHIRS

By inhibition is commonly meant the drop in the measured response relative to a control, in per cent. Regarding `C/C(=C/n1c2c(c3cc(Cl)ccc31)CN(C)CC2)c1cc(F)c(F)cc1Cl` [Compound 240, (Z)-8-chloro-5-(2-(2-chloro-4,5-difluorophenyl)prop-1-enyl)-2-methyl-2,3,4,5-tetrahydro-1H-pyrido[4,3-b]indole], the inhibition at 1 µM was found to be 95% at histamine receptor H1; 99% in test [1]; 34% in test [2] (setting [7]); 99% in test [3]; 99% in test [4]; 104% in test [5]. The inhibition at 1 µM in test [6] stood at 99%.
On to `COc1ccc(/C(C)=C/n2c3c(c4cc(C)ccc42)CN(C)CC3)cc1` [Compound 236, (E)-5-(2-(4-methoxyphenyl)prop-1-enyl)-2,8-dimethyl-2,3,4,5-tetrahydro-1H-pyrido[4,3-b]indole], for which the inhibition at 1 µM on histamine receptor H1 was 20%; in test [1], 99%; in test [2] (setting [7]) it was 76%; in test [3], 99%; in test [4] it was 102%; in test [5], 98%. Moreover, the inhibition at 1 µM in test [6] is 93%.
In the case of `C/C(=C/n1c2c(c3cc(C)ccc31)CN(C)CC2)c1ccccc1Cl` [Compound 242, (Z)-5-(2-(2-chlorophenyl)prop-1-enyl)-2,8-dimethyl-2,3,4,5-tetrahydro-1H-pyrido[4,3-b]indole], the inhibition at 1 µM at histamine receptor H1 was 88%; in test [1], 97%; in test [2] (setting [7]) it was 55%; in test [3], 98%; in test [4], 99%; in test [5], 107%. Further, the inhibition at 1 µM in test [6] is 100%.
Regarding `C/C(=C/n1c2c(c3cc(C)ccc31)CN(C)CC2)c1cccc(F)c1` [Compound 225, (Z)-5-(2-(3-fluorophenyl)prop-1-enyl)-2,8-dimethyl-2,3,4,5-tetrahydro-1H-pyrido[4,3-b]indole], the inhibition at 1 µM at histamine receptor H1 was 81%; in test [1], 98%; in test [2] (setting [7]) it was 43%; in test [3], 99%; in test [4], 100%; in test [5] it was 103%. The inhibition at 1 µM in test [6] worked out at 94%.
As for `C/C(=C\n1c2c(c3cc(Cl)ccc31)CN(C)CC2)c1cc(F)c(F)cc1Cl` [Compound 241, (E)-8-chloro-5-(2-(2-chloro-4,5-difluorophenyl)prop-1-enyl)-2-methyl-2,3,4,5-tetrahydro-1H-pyrido[4,3-b]indole], the inhibition at 1 µM on histamine receptor H1 stood at 89%; in test [1], 98%; in test [2] (setting [7]) it was 47%; in test [3] it was 93%; in test [4], 100%; in test [5], 101%. The inhibition at 1 µM in test [6] worked out at 96%.
On to `C=C(Cn1c2c(c3cc(OC)ccc31)CN(C)CC2)c1ccncc1` [Compound No. 356, 8-methoxy-2-methyl-5-(2-(pyridin-4-yl)allyl)-2,3,4,5-tetrahydro-1H-pyrido[4,3-b]indole], for which the inhibition at 1 µM turned out to be 70% on histamine receptor H1; 17% in test [1]; 37% in test [2] ([…] [3H]Spiperone, read-out: Inhibition of ligand binding, Dopamine D2L (percent inhibition of specific binding)); 81% in test [3]; 83% in test [4]; 90% in test [5]. In test [6], the inhibition at 1 µM was 60%.
Regarding `CN1CCc2c(c3ccccc3n2CC(C)(O)c2ccncc2)C1` (stereo not shown) [Compound 186, 1-(2-methyl-3,4-dihydro-1H-pyrido[4,3-b]indol-5(2H)-yl)-2-(pyridin-4-yl)propan-2-ol], the inhibition at 1 µM at histamine receptor H1 worked out at 1%; in test [1], 22%; in test [2] (setting [7]), 3%; in test [3] it was 74%; in test [4] it was 72%; in test [5] it was 12%. In addition, the inhibition at 1 µM in test [6] worked out at 37%.

For the origin of these results see patent US8906925B2, “Pyrido[4,3-B]indoles containing rigid moieties” (Medivation Technologies, Inc., priority 2008, dated 2014).
